Source: PMC9551036, “A selective and orally bioavailable VHL-recruiting PROTAC achieves SMARCA2 degradation in vivo” (Nature Communications, 2022)
Where “and” joins values, the source holds several entries; their conditions need not be identical. Identical values can stand only once.

Experiments:
SMARCA2/4 [1] = target: T1, SMARCA2/4 (Homo sapiens, UniProt P51531); assay: SMARCA2/4 half-life (cycloheximide) and re-synthesis after compound 6 and VHL binder in HCT116 and RKO; assay type: cell-based; conditions: for K (one phase exponential decay) / Tau (one phase exponential decay): CHX
T1 construct: endogenous in cells; host or cells: HCT116, RKO
Protocol: (§1) 130,000–200,000 cells were seeded in 24-well plates and incubated until settled down or overnight. Compounds were dissolved in DMSO and added to cells in indicated concentrations using a digital dispenser following an optional media change. […] For SMARCA2/4 half-life determination, 150,000 or 200,000 cells were seeded in 24-well plates. […] For SMARCA2/4 re-synthesis measurements, 200,000 cells were seeded in 24-well plates. The next day, 100 nM compound 6 was added for 4 h to degrade SMARCA2/4, and a sample was taken as baseline for normalisation. […] Medium was removed, cells were washed with PBS and lysed with 80 µl Lysis Buffer (MSD Tris Lysis Buffer (#R60TX-2) + Halt Inhibitor Cocktail (100x) + Benzonase 0.5 µL/ml). Samples were frozen at −80 °C and thawed at room temperature before use. Samples were transferred to a V-bottom plate and insoluble debris was pelleted by centrifugation for 5 min at maximum speed. The supernatant was transferred to a fresh plate. Master Mix and Ladder were prepared according to manufacturer’s instructions for 12–230 kDa Wes Separation Module, 8 × 25 capillary cartridges, Protein Simple #SM-W004 with Anti-Rabbit Detection Module for Wes, Peggy Sue or Sally Sue, Protein Simple #DM-001. 4.8 µl lysate were mixed with 1.2 µl Master Mix to achieve a protein concentration of ~0.5 µg/µl. Antibodies were diluted in Antibody Diluent II (SMARCA2 Sigma #HPA029981 RRID:AB_10602406 1:25–100, SMARCA4 Cell Signalling #49360 clone D1Q7F RRID:AB_2728743 1:15–120 or Abcam #ab110641 clone EPNCIR111A RRID:AB_10861578 1:60, GAPDH Abcam #ab9485 RRID:AB_307275 1:250). Wes plates were prepared and run according to manufacturer’s instructions. Proteins were quantified with accompanying Compass Software. SMARCA2/4 protein levels were normalised to GAPDH. […] Where applicable, curves were fitted using a 4-parametric logistic model.

SMARCA2/4 [2] = target: T2, SMARCA2/4 (Homo sapiens, UniProt P51532); assay: as above; assay type: cell-based; conditions: for K (one phase exponential decay) / Tau (one phase exponential decay): CHX
T2 construct: endogenous in cells; host or cells: HCT116, RKO
Protocol: as §1

T2 sequence (P51532 whole entry): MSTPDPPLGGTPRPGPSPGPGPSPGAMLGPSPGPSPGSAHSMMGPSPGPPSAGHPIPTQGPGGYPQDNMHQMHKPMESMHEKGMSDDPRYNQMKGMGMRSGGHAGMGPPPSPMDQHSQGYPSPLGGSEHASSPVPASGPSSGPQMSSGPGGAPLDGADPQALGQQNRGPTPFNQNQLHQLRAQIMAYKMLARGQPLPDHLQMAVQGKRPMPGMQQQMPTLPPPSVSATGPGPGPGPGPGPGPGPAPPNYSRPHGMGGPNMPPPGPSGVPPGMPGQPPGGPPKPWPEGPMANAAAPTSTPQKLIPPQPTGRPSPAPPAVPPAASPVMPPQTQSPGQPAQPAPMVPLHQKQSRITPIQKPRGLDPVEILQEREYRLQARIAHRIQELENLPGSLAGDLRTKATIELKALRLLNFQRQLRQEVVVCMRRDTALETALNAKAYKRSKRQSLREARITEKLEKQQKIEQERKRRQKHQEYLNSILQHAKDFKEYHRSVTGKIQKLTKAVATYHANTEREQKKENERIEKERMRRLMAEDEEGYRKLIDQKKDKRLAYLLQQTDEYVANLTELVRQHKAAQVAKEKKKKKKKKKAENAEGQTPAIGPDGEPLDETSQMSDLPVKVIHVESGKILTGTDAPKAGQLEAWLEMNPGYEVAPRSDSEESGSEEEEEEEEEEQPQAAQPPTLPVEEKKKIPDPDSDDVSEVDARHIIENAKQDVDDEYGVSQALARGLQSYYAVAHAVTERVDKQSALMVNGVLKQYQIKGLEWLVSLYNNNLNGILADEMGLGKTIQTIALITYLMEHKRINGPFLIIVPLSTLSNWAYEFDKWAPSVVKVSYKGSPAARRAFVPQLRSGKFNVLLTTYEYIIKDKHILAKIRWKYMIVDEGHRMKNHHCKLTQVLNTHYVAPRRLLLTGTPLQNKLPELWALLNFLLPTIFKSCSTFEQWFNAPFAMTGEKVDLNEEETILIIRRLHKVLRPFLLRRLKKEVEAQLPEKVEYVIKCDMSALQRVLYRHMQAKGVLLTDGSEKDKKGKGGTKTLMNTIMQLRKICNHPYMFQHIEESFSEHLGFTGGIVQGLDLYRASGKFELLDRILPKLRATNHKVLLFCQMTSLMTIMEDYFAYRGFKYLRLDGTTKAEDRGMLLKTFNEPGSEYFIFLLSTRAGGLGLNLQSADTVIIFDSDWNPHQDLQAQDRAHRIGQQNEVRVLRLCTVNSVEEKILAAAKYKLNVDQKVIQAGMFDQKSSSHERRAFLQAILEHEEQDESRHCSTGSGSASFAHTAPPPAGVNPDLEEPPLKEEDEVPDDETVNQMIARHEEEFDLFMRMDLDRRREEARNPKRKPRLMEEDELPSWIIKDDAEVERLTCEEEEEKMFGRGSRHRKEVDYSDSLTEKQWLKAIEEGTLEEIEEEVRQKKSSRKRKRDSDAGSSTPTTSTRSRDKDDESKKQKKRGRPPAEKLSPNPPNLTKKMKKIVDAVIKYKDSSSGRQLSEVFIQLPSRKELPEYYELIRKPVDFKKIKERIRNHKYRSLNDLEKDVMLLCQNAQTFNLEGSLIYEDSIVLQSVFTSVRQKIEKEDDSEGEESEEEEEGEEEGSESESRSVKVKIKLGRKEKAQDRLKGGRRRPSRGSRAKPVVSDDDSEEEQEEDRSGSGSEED
T1 sequence (P51531 whole entry): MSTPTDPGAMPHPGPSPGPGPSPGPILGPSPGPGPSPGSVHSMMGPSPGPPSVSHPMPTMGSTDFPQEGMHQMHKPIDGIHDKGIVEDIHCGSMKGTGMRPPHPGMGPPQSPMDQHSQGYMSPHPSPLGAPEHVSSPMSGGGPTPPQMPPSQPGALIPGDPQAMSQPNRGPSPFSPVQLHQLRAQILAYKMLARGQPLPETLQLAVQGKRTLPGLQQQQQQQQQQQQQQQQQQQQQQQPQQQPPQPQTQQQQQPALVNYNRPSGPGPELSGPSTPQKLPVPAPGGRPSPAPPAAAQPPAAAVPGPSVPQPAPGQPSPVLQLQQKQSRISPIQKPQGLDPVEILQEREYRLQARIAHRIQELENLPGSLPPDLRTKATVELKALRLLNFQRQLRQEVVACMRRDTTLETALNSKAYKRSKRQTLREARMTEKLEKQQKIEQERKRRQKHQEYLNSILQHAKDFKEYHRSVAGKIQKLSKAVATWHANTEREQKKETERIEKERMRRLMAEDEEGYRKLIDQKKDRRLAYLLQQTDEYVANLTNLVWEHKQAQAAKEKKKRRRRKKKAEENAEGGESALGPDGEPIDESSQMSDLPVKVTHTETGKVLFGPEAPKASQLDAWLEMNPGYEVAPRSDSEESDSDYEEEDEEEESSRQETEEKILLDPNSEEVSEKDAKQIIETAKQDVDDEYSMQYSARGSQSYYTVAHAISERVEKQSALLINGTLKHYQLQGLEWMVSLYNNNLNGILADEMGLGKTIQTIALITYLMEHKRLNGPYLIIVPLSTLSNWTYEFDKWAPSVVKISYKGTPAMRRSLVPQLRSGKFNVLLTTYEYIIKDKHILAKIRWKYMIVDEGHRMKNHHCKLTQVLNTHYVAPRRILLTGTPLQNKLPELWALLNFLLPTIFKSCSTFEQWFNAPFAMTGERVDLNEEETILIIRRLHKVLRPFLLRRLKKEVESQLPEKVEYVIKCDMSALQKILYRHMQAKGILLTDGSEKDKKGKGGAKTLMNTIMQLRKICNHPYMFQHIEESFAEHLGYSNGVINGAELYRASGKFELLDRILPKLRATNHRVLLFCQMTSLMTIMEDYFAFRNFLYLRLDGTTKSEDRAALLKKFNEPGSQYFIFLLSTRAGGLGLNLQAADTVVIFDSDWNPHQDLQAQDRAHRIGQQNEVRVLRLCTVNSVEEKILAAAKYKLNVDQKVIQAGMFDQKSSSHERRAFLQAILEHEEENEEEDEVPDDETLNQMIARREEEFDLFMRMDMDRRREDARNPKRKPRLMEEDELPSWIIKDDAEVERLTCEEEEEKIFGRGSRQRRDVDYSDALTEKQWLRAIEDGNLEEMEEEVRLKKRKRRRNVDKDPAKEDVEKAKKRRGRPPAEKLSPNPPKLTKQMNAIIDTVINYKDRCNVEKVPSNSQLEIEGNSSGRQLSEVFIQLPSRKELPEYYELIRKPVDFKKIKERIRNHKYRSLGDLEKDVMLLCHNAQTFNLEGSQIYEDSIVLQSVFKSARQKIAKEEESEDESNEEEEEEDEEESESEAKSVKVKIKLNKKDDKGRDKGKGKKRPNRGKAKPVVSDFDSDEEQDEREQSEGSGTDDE

With `C[C@@H]1C[C@@H]([C@H](O)CC2CC(=O)NC(=O)C2)C(=O)[C@@H](C)C1` [CHX] the “K (one phase exponential decay)” value (SMARCA2/4 [1]; HCT116, SM2) was 0.01756, the “Tau (one phase exponential decay)” value (SMARCA2/4 [1]; HCT116, SM2) was 56.94 h and the fraction protein remaining (SMARCA2/4 [1]; HCT116, SM2, Time CHX 1 h) was 0.9134 and 0.9119 and 0.8363. For the same compound, the fraction protein remaining (SMARCA2/4 [1]; HCT116, SM2, Time CHX 2 h) was 1.19 and 0.984 and 1.003, the fraction protein remaining (SMARCA2/4 [1]; HCT116, SM2, Time CHX 6 h) was 1.2436 and 0.9973 and 0.8745 and the fraction protein remaining (SMARCA2/4 [1]; HCT116, SM2, Time CHX 18 h) was 0.8497 and 0.6816 and 0.6174. The fraction protein remaining (SMARCA2/4 [1]; HCT116, SM2, Time CHX 20 h) was 0.8836 and 0.7383 and 0.515, the “K (one phase exponential decay)” value (SMARCA2/4 [1]; RKO, SM2) was 0.03021 and the “Tau (one phase exponential decay)” value (SMARCA2/4 [1]; RKO, SM2) was 33.1 h. For the same compound, the fraction protein remaining (SMARCA2/4 [1]; RKO, SM2, Time CHX 1 h) was 0.6694 and 0.8157 and 0.6659, the fraction protein remaining (SMARCA2/4 [1]; RKO, SM2, Time CHX 2 h) was 0.8737 and 0.9723 and 0.8342 and the fraction protein remaining (SMARCA2/4 [1]; RKO, SM2, Time CHX 6 h) was 0.9472 and 0.9944 and 0.8492. For the same compound, the fraction protein remaining (SMARCA2/4 [1]; RKO, SM2, Time CHX 18 h) was 0.7207 and 0.4914 and 0.6074, the fraction protein remaining (SMARCA2/4 [1]; RKO, SM2, Time CHX 20 h) was 0.6704 and 0.4369 and 0.5438 and the “K (one phase exponential decay)” value (SMARCA2/4 [2]; HCT116, SM4) was 0.01934. For the same compound, the “Tau (one phase exponential decay)” value (SMARCA2/4 [2]; HCT116, SM4) was 51.7 h, the fraction protein remaining (SMARCA2/4 [2]; HCT116, SM4, Time CHX 1 h) was 0.9048 and 0.6354 and 0.681 and the fraction protein remaining (SMARCA2/4 [2]; HCT116, SM4, Time CHX 2 h) was 1.063 and 0.7806 and 0.7981. For the same compound, the fraction protein remaining (SMARCA2/4 [2]; HCT116, SM4, Time CHX 6 h) was 0.982 and 0.7891 and 0.769, the fraction protein remaining (SMARCA2/4 [2]; HCT116, SM4, Time CHX 18 h) was 0.6017 and 0.6088 and 0.5084 and the fraction protein remaining (SMARCA2/4 [2]; HCT116, SM4, Time CHX 20 h) was 0.6375 and 0.6135 and 0.453. The fraction protein remaining (SMARCA2/4 [2]; HCT116, SM4, Time CHX 24 h) was 0.6439 and 0.582 and 0.7075, the “K (one phase exponential decay)” value (SMARCA2/4 [2]; RKO, SM4) was 0.05848 and the “Tau (one phase exponential decay)” value (SMARCA2/4 [2]; RKO, SM4) was 17.1 h. The fraction protein remaining (SMARCA2/4 [2]; RKO, SM4, Time CHX 1 h) was 0.6419 and 0.7642 and 0.7888, the fraction protein remaining (SMARCA2/4 [2]; RKO, SM4, Time CHX 2 h) was 0.6538 and 0.6196 and 0.6177 and the fraction protein remaining (SMARCA2/4 [2]; RKO, SM4, Time CHX 6 h) was 0.4106 and 0.4086 and 0.4599. The fraction protein remaining (SMARCA2/4 [2]; RKO, SM4, Time CHX 18 h) was 0.3137 and 0.4693 and 0.3349, the fraction protein remaining (SMARCA2/4 [2]; RKO, SM4, Time CHX 20 h) was 0.3111 and 0.4007 and 0.3018 and the fraction protein remaining (SMARCA2/4 [2]; RKO, SM4, Time CHX 24 h) was 0.1564 and 0.2093 and 0.1216.
